Source: patent US20260092179A1, “GENETICALLY MODIFIED HOST CELLS PRODUCING VIOLACEIN, ANALOGUES, AND DERIVATIVES THEREOF” (OCTARINE BIO APS, priority 2022, published 2026)

How the values were obtained:
[1] = UV stability of dyed fabrics (colour fastness, ΔE); format: physicochemical; details: for ΔE: before vs after UV lamp, room temperature, 1 h
Method: (§1) In order to assess the stability and colour fastness of violacein and violacein derivatives dyed onto fabrics, dyed fabrics were subjected to a number of conditions. Fabrics were dyed according to Example 18 and colour coordinates and colour change before and after exposure to a given condition were determined as described in Example 18. To measure temperature stability, fabrics were incubated in an oven set to 80° c. for 4 h. To measure stability under acid and alkaline conditions, fabrics were fully submerged in water solutions set to pH 8 with NaOH and pH 5 with HCl and incubated at room temperature for 30 minutes. Fabrics were then incubated at 37° c. for 4 h. To measure stability during laundering, fabrics were washed at 30° c. under the “mix” setting of a Siemens IQ300 washing machine, then dried in a Siemens IQ300 dryer until dry. To measure artificial light stability, fabrics were placed under an LED lamp at room temperature for 16 h. To measure UV light stability, fabrics were placed under a UV lamp at room temperature for 1 h.

[2] = Free radical scavenging ability of dyed Nylon 6,6 fabric (DPPH); format: biochemical; details: dyed Nylon 6,6 fabric strip
Method: Violacein is reported as being a potent antioxidant able to effectively scavenge free radicals. […] To test this, 1.5×1.5 cm dyed Nylon 6,6 fabric strips were incubated in the dark at room temperature for 1 h in 5 mL of a 5×10^−5 M DPPH free radical solution in 100% ethanol. Undyed Nylon 6,6 fabric strips were included as a negative control. After 1 h absorbance was measured at 517 nm and % scavenging ability calculated as above.

[3] = system: E. coli DH5a; experiment: Antimicrobial activity of dyed Nylon 6,6 fabric: final OD600 and % inhibition; format: cell-based
Method: (§2) Violacein is reported as being a potent antibiotic, capable of inhibiting the growth of a wide range of microbial kingdoms including bacteria, yeast, fungi, viruses, protozoa and nematode. […] To test this, overnight cultures of wild-type E. coli DH5a and S. cerevisiae S228c strains were diluted in 5 mL of cultivation media (LB for E. coli, minimal media for S. cerevisiae) to a starting OD600 of 0.1. 1.5×1.5 cm dyed Nylon 6,6 fabric strips were sterilized by submerging in 75% ethanol for 15 mins and air drying in a laminar air flow hood before adding to each culture (with undyed Nylon 6,6 fabric as a negative control). […] This experiment provides evidence that all violacein derivatives display antimicrobial properties.

[4] = system: S. cerevisiae S228c; experiment: as above; format: cell-based
Method: as §2

[5] = Alkaline pH stability of dyed fabrics (colour fastness, ΔE); format: physicochemical; details: pH 8 with NaOH
Method: as §1

[6] = Acrylic, after test (UV lamp, room temperature, 1 h)
[7] = Bleached cotton, after test (UV lamp, room temperature, 1 h)
[8] = Diacetate, after test (UV lamp, room temperature, 1 h)
[9] = Nylon 6,6, after test (UV lamp, room temperature, 1 h)
[10] = Polyester, after test (UV lamp, room temperature, 1 h)
[11] = Wool, after test (UV lamp, room temperature, 1 h)

SMILES: O=C1NC(c2c[nH]c3ccc(O)cc23)=C/C1=C1\C(=O)Nc2ccccc21 [violacein]
- L [1, 6]: 62.36
- a [1, 6]: 1.52
- b [1, 6]: 0.96
- L ([1]; Acrylic, before test): 59.81
- a ([1]; Acrylic, before test): 2.39
- b ([1]; Acrylic, before test): 0.08
- ΔE ([1]; Acrylic): 2.83
- L [1, 7]: 58.38
- a [1, 7]: 3.17
- b [1, 7]: −5.79
- L ([1]; Bleached cotton, before test): 58.11
- a ([1]; Bleached cotton, before test): 3.63
- b ([1]; Bleached cotton, before test): −8.4
- ΔE ([1]; Bleached cotton): 2.66
- L [1, 8]: 43.08
- a [1, 8]: 10.1
- b [1, 8]: −9.59
- L ([1]; Diacetate, before test): 41.1
- a ([1]; Diacetate, before test): 9.04
- b ([1]; Diacetate, before test): −13.41
- ΔE ([1]; Diacetate): 4.43
- L [1, 9]: 35.29
- a [1, 9]: 4.36
- b [1, 9]: −18.03
- L ([1]; Nylon 6,6, before test): 34.58
- a ([1]; Nylon 6,6, before test): 4.58
- b ([1]; Nylon 6,6, before test): −19.61
- ΔE ([1]; Nylon 6,6): 1.75
- L [1, 10]: 68.13
- a [1, 10]: 1.99
- b [1, 10]: −0.71
- L ([1]; Polyester, before test): 67.13
- a ([1]; Polyester, before test): 1.68
- b ([1]; Polyester, before test): −1.12
- ΔE ([1]; Polyester): 1.12
- L [1, 11]: 68.91
- a [1, 11]: 2.13
- b [1, 11]: 1.49
- L ([1]; Wool, before test): 68.14
- a ([1]; Wool, before test): 0.77
- b ([1]; Wool, before test): 1.77
- ΔE ([1]; Wool): 1.59
- OD517 ([2]; 1 h in the dark in 5×10^−5 M DPPH in 100% ethanol): 1.64
- Scavenging ability % ([2]; 1 h in the dark in 5×10^−5 M DPPH, vs undyed control): 27.53%
- Final OD600 ([3]; E. coli cultured overnight at 30° c. with dyed Nylon 6,6 fabric strip, starting OD600 0.1): 4.16
- % Inhibition ([3]; E. coli, dyed Nylon 6,6 fabric vs undyed fabric control): 20.24%
- growth inhibition of E. coli ([3]; dyed Nylon 6,6 fabric strip in culture, overnight 30° c., OD600 versus undyed fabric): most inhibited
- Final OD600 ([4]; S. cerevisiae cultured overnight at 30° c. with dyed Nylon 6,6 fabric strip, starting OD600 0.1): 4.64
- % Inhibition ([4]; S. cerevisiae, dyed Nylon 6,6 fabric vs undyed fabric control): 13.43%
- L ([5]; Acrylic, After test): 63.85
- a ([5]; Acrylic, After test): 2.52
- b ([5]; Acrylic, After test): 0.06
- L ([5]; Acrylic, Before test): 65.79
- a ([5]; Acrylic, Before test): 3.11
- b ([5]; Acrylic, Before test): 0.28
- ΔE ([5]; Acrylic, before and after the stability test): 2.04
- L ([5]; Bleached cotton, After test): 60.76
- a ([5]; Bleached cotton, After test): 3.22
- b ([5]; Bleached cotton, After test): −7.53
- L ([5]; Bleached cotton, Before test): 59.94
- a ([5]; Bleached cotton, Before test): 2.69
- b ([5]; Bleached cotton, Before test): −8.23
- ΔE ([5]; Bleached cotton, before and after the stability test): 1.20
- L ([5]; Diacetate, After test): 44.97
- a ([5]; Diacetate, After test): 7.85
- b ([5]; Diacetate, After test): −11.19
- L ([5]; Diacetate, Before test): 43.93
- a ([5]; Diacetate, Before test): 8.84
- b ([5]; Diacetate, Before test): −14.67
- ΔE ([5]; Diacetate, before and after the stability test): 3.76
- L ([5]; Nylon 6,6, After test): 33.91
- a ([5]; Nylon 6,6, After test): 5.25
- b ([5]; Nylon 6,6, After test): −19.35
- L ([5]; Nylon 6,6, Before test): 34.13
- a ([5]; Nylon 6,6, Before test): 6.3
- b ([5]; Nylon 6,6, Before test): −20.23
- ΔE ([5]; Nylon 6,6, before and after the stability test): 1.39
- L ([5]; Polyester, After test): 68.28
- a ([5]; Polyester, After test): 1.01
- b ([5]; Polyester, After test): −0.5
- L ([5]; Polyester, Before test): 66.44
- a ([5]; Polyester, Before test): 4.15
- b ([5]; Polyester, Before test): −2.11
- ΔE ([5]; Polyester, before and after the stability test): 3.98
- L ([5]; Wool, After test): 66.99
- a ([5]; Wool, After test): −0.18
- b ([5]; Wool, After test): 1.19
- L ([5]; Wool, Before test): 67.52
- a ([5]; Wool, Before test): 0.35
- b ([5]; Wool, Before test): 1.01
- ΔE ([5]; Wool, before and after the stability test): 0.77
